One series has as its system hTERT expression. Briefly: SEAP assay in hTERT-BJ1-PTERT(3.4)-SEAP cells. The class given is cell-based. Particulars: Homo sapiens, read-out: SEAP (Inhibition μM ± SD); for activity at 1 µM: compound concentration 1 μM. The protocol:
A total of 2×10^3 hTERT-BJ1-PTERT(3.4)-SEAP cells were seeded in the 96-well cell culture plate, and incubated with DMEM (GIBCO®)/glucose mixture and Medium 199 (GIBCO®)/10% FBS/1 mM sodium pyruvate (GIBCO®)/4 mM L-glutamine (GIBCO®) mixture at a ratio of 4:1 at 37° C. for 24 hours. When the cells were attached in the bottom of the well, the seriously-diluted compounds with different concentrations ([…]) were treated with the cells for 48 hours, and the PTERT(3.4)-SEAP cells without drug treatment were being the control. After 48 hours of drug treatment, the cultured medium were collected for performing the analysis of SEAP activity. The cells were washed with 1×PBS once immediately, and the MTT assay was performed to compare the compounds with the relative toxicity or the influence to the proliferation and activity.
The cellular medium after the cellular incubation was transferred into the eppondorf tube, and the activity of endogeneous alkaline phosphatase was inactivated at 65° C. for 10 minutes. After centrification, the mixture was obtained by mixing 50 μl of the supernatant with the equal volume of the SEAP buffer. The mixture and the substrate (120 mM of p-nitrophenylphosphate) were preheated at 37° C. for 10 minutes respectively, and the mixture and the substrate were mixed at a ratio of 1:10 and reacted at 37° C. The absorbance of visible light at 405 nm was determined at the appropriate time intervals, and the enzymatic activity of SEAP was represented by the speed of the increasing absorbance at 405 nm.

The nature of the next series: MTT assay in H1299 cells. Type of series: cell-based. The conditions noted are these: human, H1299 cells (H1299/PhTERT-driven SEAP reporter system), H1299, read-out: MTT (Inhibition μM ± SD); for viability at 24 h, 1 µM: compound concentration 1 μM; for viability at 24 h, 10 µM: compound concentration 10 μM; for viability at 24 h, 100 µM: compound concentration 100 μM. The protocol:
H1299 is a non-small cell lung cancer cell line with telomerase activity. The cell extract of H1299 cell lines can be used for selecting the telomerase activity inhibitors in vitro and the telomerase activity-inhibited substances in vivo. H1299 cell line was incubated with RPMI 1640 medium supplemented with 10% of fetal bovine serum (FBS). A total of 2×10^3 […] cells were seeded in the 96-well cell culture plate, and incubated with DMEM (GIBCO®)/glucose mixture and Medium 199 (GIBCO®)/10% FBS/1 mM sodium pyruvate (GIBCO®)/4 mM L-glutamine (GIBCO®) mixture at a ratio of 4:1 at 37° C. for 24 hours. […] After 48 hours of drug treatment, the cultured medium were collected for performing the analysis of SEAP activity. The cells were washed with 1×PBS once immediately, and the MTT assay was performed to compare the compounds with the relative toxicity or the influence to the proliferation and activity. Mitochondria is the place for cellular respiration, and there are many reductive reactions catalyzed by dehydrogenases. MTT is a water-soluble yellow compound, and the […] will be formed after reduction. This crystal can be dissolved in the organic solvent, and has high absorbance at the wavelength of 570 nm. The higher cellular activity or more cell numbers, the more generated crystal violets. Therefore, the cellular activity and cell number can be obtained by the MTT assay. MTT solution was prepared by dissolving MTT powder in PBS solution to achieve 5 mg/ml, filtrated and stored at 4° C. Lysis buffer contained 20% (w/v) of SDS in 50% of N,N-dimethylformamide (DMF, Riedel-deHaën). After the cells were incubated in the 96-well culture plate, the original medium was discarded, 100 μl of the fresh serum-free medium per well and 25 μl of MTT solution per well were added in respectively, and the cells were further incubated in the CO2 incubator at 37° C. for 4 hours. Then, 100 μl of lysis buffer per well was added in and incubated overnight in the CO2 incubator at 37° C. The absorbance at 570 nm was determined by the ELISA reader. The selection of telomerase inhibitors of the anthraquinone compounds provided in the present invention was performed by the […]-driven SEAP system. SEAP is the communication gene in this drug selection model. The SEAP inhibition was shown as follows. […] Subsequently, the linear slope of absorbance to the measuring time was calculated, and the variance of absorbance at 405 nm per minute was represented and compared with the SEAP-producing result of drug-untreated H1299 cells. In addition, the influence of the cell-treated drug solution to the cellular proliferation and the drug toxicity to the cells were considered, and the cellular growth was evaluated by the MTT assay. The drug-treated cells were analyzed by the SEAP assay and the data analysis of MTT assay at the same time. Both results were compared so as to delete the influence of cell number or the activity to SEAP, and the dose-dependent phenomenon could be anticipated in the range of drug concentration designed by the laboratory. […] Since the chemically-synthetic drugs have colors thereon, the SEAP value of drug-treatment without cells was also determined to be the background value which was deducted while treating with the drugs. The candidate drug for inhibiting telomerase on the hTERT gene expression level was evaluated and anticipated.

A short description of another series: MTT assay in BJ1 cells. Type of series: cell-based. Particulars: human, hTERT-BJ1-PTERT(3.4)-SEAP cells, BJ1, read-out: MTT (Inhibition μM ± SD); for viability at 48 h, 1 µM: compound concentration 1 μM; for viability at 48 h, 10 µM: compound concentration 10 μM; for viability at 48 h, 100 µM: compound concentration 100 μM. The protocol:
A total of 2×10^3 […] cells were seeded in the 96-well cell culture plate, and incubated with DMEM (GIBCO®)/glucose mixture and Medium 199 (GIBCO®)/10% FBS/1 mM sodium pyruvate (GIBCO®)/4 mM L-glutamine (GIBCO®) mixture at a ratio of 4:1 at 37° C. for 24 hours. […] After 48 hours of drug treatment, the cultured medium were collected for performing the analysis of SEAP activity. The cells were washed with 1×PBS once immediately, and the MTT assay was performed to compare the compounds with the relative toxicity or the influence to the proliferation and activity. Mitochondria is the place for cellular respiration, and there are many reductive reactions catalyzed by dehydrogenases. MTT is a water-soluble yellow compound, and the […] will be formed after reduction. This crystal can be dissolved in the organic solvent, and has high absorbance at the wavelength of 570 nm. The higher cellular activity or more cell numbers, the more generated crystal violets. Therefore, the cellular activity and cell number can be obtained by the MTT assay. MTT solution was prepared by dissolving MTT powder in PBS solution to achieve 5 mg/ml, filtrated and stored at 4° C. Lysis buffer contained 20% (w/v) of SDS in 50% of N,N-dimethylformamide (DMF, Riedel-deHaën). After the cells were incubated in the 96-well culture plate, the original medium was discarded, 100 μl of the fresh serum-free medium per well and 25 μl of MTT solution per well were added in respectively, and the cells were further incubated in the CO2 incubator at 37° C. for 4 hours. Then, 100 μl of lysis buffer per well was added in and incubated overnight in the CO2 incubator at 37° C. The absorbance at 570 nm was determined by the ELISA reader.

The mark [1] stands for this setting: BJ1, compound concentration 10 μM.
The mark [2] stands for this setting: BJ1, compound concentration 100 μM.

Each structure is given as a SMILES string. Like-named read-outs stand apart in the source and are kept apart here.

`O=C(CCN1CCNCC1)Nc1ccc2c(c1)C(=O)c1cc(NC(=O)CCN3CCNCC3)ccc1C2=O` [Compound 24, 2,7-Bis[3-(piperazino)propionamido]anthraquinone] gave a melting point of 218 °C. Further, the activity at 1 µM in the series on hTERT expression (BJ1) turned out to be 163 ± 22%. In addition, in the series on hTERT expression (setting [1]), the activity at 10 µM amounted to 118 ± 26%. For the same compound, the activity at 100 µM in the series with hTERT expression (setting [2]) amounted to 131 ± 29%. Also, in the series “MTT assay in H1299 cells”, the viability at 24 h, 1 µM came out at 97 ± 8%; the viability at 24 h, 10 µM came out at 94 ± 8%; the viability at 24 h, 100 µM amounted to 102 ± 13%. In addition, in “MTT assay in BJ1 cells”, the viability at 48 h, 1 µM was 96 ± 2%; the viability at 48 h, 10 µM was 100 ± 3%; the viability at 48 h, 100 µM was determined as 88 ± 4%.
For `O=C1c2ccc(NC(=O)C3CCCCC3)cc2C(=O)c2cc(NC(=O)C3CCCCC3)ccc21` [Compound 34, 2,7-Bis(cyclohexanecarbonamido)anthraquinone], the melting point was 269 °C. The activity at 1 µM in the series with hTERT expression (BJ1) came to 14 ± 67%. Besides, the activity at 10 µM in the series on hTERT expression (setting [1]) was 14 ± 53%. Also, the activity at 100 µM in the series with hTERT expression (setting [2]) worked out at 22 ± 7%. For the same compound, in the series “MTT assay in H1299 cells”, the viability at 24 h, 1 µM worked out at 90 ± 3%; the viability at 24 h, 10 µM stood at 63 ± 13%; the viability at 24 h, 100 µM came out at 52 ± 16%. For the same compound, in “MTT assay in BJ1 cells”, the viability at 48 h, 1 µM was 87 ± 2%; the viability at 48 h, 10 µM was 76 ± 3%; the viability at 48 h, 100 µM turned out to be 64 ± 2%.
`O=C(CCN1CCCCC1)Nc1ccc2c(c1)C(=O)c1cc(NC(=O)CCN3CCCCC3)ccc1C2=O` [Compound 19, 2,7-Bis[3-(piperidino)propionamido]anthraquinone]: the melting point is 266 °C. In addition, the activity at 1 µM in the series with hTERT expression (BJ1) came out at 186 ± 47%. The activity at 10 µM in the series on hTERT expression (setting [1]) worked out at 226 ± 51%. The activity at 100 µM with hTERT expression (setting [2]) stood at 234 ± 20%. For the same compound, in “MTT assay in H1299 cells”, the viability at 24 h, 1 µM was 87 ± 15%; the viability at 24 h, 10 µM was 44 ± 7%; the viability at 24 h, 100 µM is 18 ± 9%. Also, in “MTT assay in BJ1 cells”, the viability at 48 h, 1 µM came out at 92 ± 6%; the viability at 48 h, 10 µM is 54 ± 2%; the viability at 48 h, 100 µM is 41 ± 2%.
`O=C(CCl)Nc1ccc2c(c1)C(=O)c1cc(NC(=O)CCl)ccc1C2=O` [Compound 3, 2,7-bis(chloroacetamido)anthraquinone]: the melting point was determined as 286 °C. In addition, in the series on hTERT expression, the activity at 10 µM turned out to be 69 ± 34% and the activity at 100 µM stood at 135 ± 21%. Also, in the series “MTT assay in H1299 cells”, the viability at 24 h, 1 µM came out at 58 ± 44%; the viability at 24 h, 10 µM amounted to 5 ± 3%; the viability at 24 h, 100 µM was found to be 1%. Also, in the series “MTT assay in BJ1 cells”, the viability at 48 h, 1 µM is 105 ± 2%; the viability at 48 h, 10 µM stood at 89 ± 3%; the viability at 48 h, 100 µM was determined as 88 ± 2%.
`CN1CCN(CC(=O)Nc2ccc3c(c2)C(=O)c2cc(NC(=O)CN4CCN(C)CC4)ccc2C3=O)CC1` [Compound 11, 2,7-Bis[2-(N-methylpiperazino)acetamido]anthraquinone] yielded a melting point of 173 °C. For the same compound, the activity at 1 µM in the series on hTERT expression (BJ1) was found to be 61 ± 21%. Besides, the activity at 10 µM in the series on hTERT expression (setting [1]) turned out to be 68 ± 21%. Also, in the series on hTERT expression (setting [2]), the activity at 100 µM turned out to be 97 ± 30%. Besides, in the series “MTT assay in H1299 cells”, the viability at 24 h, 1 µM came out at 90 ± 14%; the viability at 24 h, 10 µM was determined as 71 ± 4%; the viability at 24 h, 100 µM worked out at 37 ± 6%. In addition, in the series “MTT assay in BJ1 cells”, the viability at 48 h, 1 µM came out at 86 ± 1%; the viability at 48 h, 10 µM was 69 ± 1%; the viability at 48 h, 100 µM was determined as 47 ± 3%.
`O=C1c2ccc([N+](=O)[O-])cc2C(=O)c2cc([N+](=O)[O-])ccc21` [Compound 1, 2,7-dinitroanthraquinone] yielded a melting point of 284 °C. For the same compound, the activity at 1 µM with hTERT expression (BJ1) was 55 ± 21%. The activity at 10 µM with hTERT expression (setting [1]) worked out at 60 ± 35%. The activity at 100 µM in the series on hTERT expression (setting [2]) came to 65 ± 23%. In addition, in “MTT assay in H1299 cells”, the viability at 24 h, 1 µM was found to be 97 ± 15%; the viability at 24 h, 10 µM is 95 ± 8%; the viability at 24 h, 100 µM worked out at 69 ± 10%. Also, in the series “MTT assay in BJ1 cells”, the viability at 48 h, 1 µM amounted to 91 ± 2%; the viability at 48 h, 10 µM is 91 ± 2%; the viability at 48 h, 100 µM amounted to 86 ± 3%.
`O=C(CN1CCNCC1)Nc1ccc2c(c1)C(=O)c1cc(NC(=O)CN3CCNCC3)ccc1C2=O` [Compound 12, 2,7-Bis[2-(piperazino)acetamido]anthraquinone] had a melting point of 173 °C. Also, in “MTT assay in H1299 cells”, the viability at 24 h, 1 µM was determined as 88 ± 19%; the viability at 24 h, 10 µM came to 85 ± 13%; the viability at 24 h, 100 µM was determined as 88 ± 11%. In addition, in “MTT assay in BJ1 cells”, the viability at 48 h, 1 µM was determined as 88 ± 2%; the viability at 48 h, 10 µM was 85 ± 15%; the viability at 48 h, 100 µM was 76 ± 2%.
For the compound `CCCNCC(=O)Nc1ccc2c(c1)C(=O)c1cc(NC(=O)CNCCC)ccc1C2=O` [Compound 9, 2,7-Bis[2-(propylamino)acetamido]anthraquinone], the melting point is 143 °C. In “MTT assay in H1299 cells”, the viability at 24 h, 1 µM stood at 89 ± 15%; the viability at 24 h, 10 µM was 54 ± 11%; the viability at 24 h, 100 µM came out at 14 ± 10%. Further, in the series “MTT assay in BJ1 cells”, the viability at 48 h, 1 µM is 96 ± 3%; the viability at 48 h, 10 µM turned out to be 44%; the viability at 48 h, 100 µM is 42 ± 1%.

The values above are taken from patent US20090253709A1 (NATIONAL DEFENSE MEDICAL CENTER, priority 2008, published 2009).
